According to US10004701B2, “Methods and compositions for treating infection” (UNIVERSITY OF ROCHESTER, priority 2012, dated 2018):
Where a name gives a salt, the structure may show the parent alone. Read-outs that look alike come from different tables or passages of the source.

Assays:
Test in all cases: AK assay 384-well format, Prestwick library screening
P. aeruginosa = assay type: cell-based, Pseudomonas aeruginosa; conditions: 50 μM final drug concentration; for fold induction at 50 µM: Pseudomonas aeruginosa, 3 h
E. faecium = assay type: cell-based, Enterococcus faecium; conditions: 50 μM final drug concentration; for fold induction at 50 µM: Enterococcus faecium, 3 h
E. cloacae = assay type: cell-based, Enterobacter cloacae; conditions: 50 μM final drug concentration; for fold induction at 50 µM: Enterobacter cloacae, 3 h
K. pneumoniae = assay type: cell-based, Klebsiella pneumoniae; conditions: 50 μM final drug concentration; for fold induction at 50 µM: Klebsiella pneumoniae, 3 h
[1] = tested on: S. aureus strain USA300-0114; assay type: cell-based, Staphylococcus aureus; conditions: 50 μM final drug concentration; for fold induction at 50 µM: Staphylococcus aureus, USA300, 3 h
E. coli = assay type: cell-based, Escherichia coli; conditions: 50 μM final drug concentration; for fold induction at 50 µM: Escherichia coli, 3 h
[2] = tested on: A. baumannii strain 98-37-09; assay type: cell-based, Acinetobacter baumannii; conditions: 50 μM final drug concentration; for fold induction at 50 µM: Acinetobacter baumannii, 983709, 3 h
[3] = planktonic, cutoff for positive 3-fold increase, read-out: AK-based Prestwick Library Screening Results, P. aeruginosa (fold increase in extracellular AK activity)
[4] = planktonic, cutoff for positive 3-fold increase, read-out: AK-based Prestwick Library Screening Results, E. faecium (fold increase in extracellular AK activity)
[5] = planktonic, cutoff for positive 3-fold increase, read-out: AK-based Prestwick Library Screening Results, E. cloacae (fold increase in extracellular AK activity)
[6] = planktonic, cutoff for positive 3-fold increase, read-out: AK-based Prestwick Library Screening Results, K. pneumoniae (fold increase in extracellular AK activity)
[7] = planktonic, cutoff for positive 3-fold increase, read-out: AK-based Prestwick Library Screening Results, S. aureus (fold increase in extracellular AK activity)
[8] = planktonic, cutoff for positive 3-fold increase, read-out: AK-based Prestwick Library Screening Results, A. baumannii (fold increase in extracellular AK activity)
[9] = 384-well format, cutoff for positive-scoring molecules 3-fold increase, read-out: AK-based Prestwick Library Screening Results, P. aeruginosa (increase in extracellular AK activity)
[10] = 384-well format, cutoff for positive-scoring molecules 3-fold increase, read-out: AK-based Prestwick Library Screening Results, E. faecium (increase in extracellular AK activity)
[11] = 384-well format, cutoff for positive-scoring molecules 3-fold increase, read-out: AK-based Prestwick Library Screening Results, E. cloacae (increase in extracellular AK activity)
[12] = 384-well format, cutoff for positive-scoring molecules 3-fold increase, read-out: AK-based Prestwick Library Screening Results, K. pneumoniae (increase in extracellular AK activity)
[13] = 384-well format, cutoff for positive-scoring molecules 3-fold increase, read-out: AK-based Prestwick Library Screening Results, S. aureus (increase in extracellular AK activity)
[14] = 384-well format, cutoff for positive-scoring molecules 3-fold increase, read-out: AK-based Prestwick Library Screening Results, E. coli (increase in extracellular AK activity)
[15] = 384-well format, cutoff for positive-scoring molecules 3-fold increase, read-out: AK-based Prestwick Library Screening Results, A. baumannii (increase in extracellular AK activity)
[16] = cutoff for positive-scoring molecules 3-fold increase
[17] = 384-well format, […], read-out: AK-based Prestwick Library Screening Results, P. aeruginosa (increase in extracellular AK activity)
[18] = 384-well format, […], read-out: AK-based Prestwick Library Screening Results, E. faecium (increase in extracellular AK activity)
[19] = 384-well format, […], read-out: AK-based Prestwick Library Screening Results, E. cloacae (increase in extracellular AK activity)
[20] = 384-well format, […], read-out: AK-based Prestwick Library Screening Results, K. pneumoniae (increase in extracellular AK activity)
[21] = 384-well format, […], read-out: AK-based Prestwick Library Screening Results, S. aureus (increase in extracellular AK activity)
[22] = 384-well format, […], read-out: AK-based Prestwick Library Screening Results, E. coli (increase in extracellular AK activity)
[23] = 384-well format, […], read-out: AK-based Prestwick Library Screening Results, A. baumannii (increase in extracellular AK activity)

`CN1CCC(OC(c2ccccc2)c2ccccc2)CC1` [Diphenylpyraline hydrochloride] was tested, and the fold induction at 50 µM (P. aeruginosa; cutoff for positive-scoring molecules 3-fold increase, read-out: AK-based Prestwick Library Screening Results, P. aeruginosa (fold increase in extracellular AK activity)) was 1.1, the fold induction at 50 µM (E. faecium; cutoff for positive-scoring molecules 3-fold increase, read-out: AK-based Prestwick Library Screening Results, E. faecium (fold increase in extracellular AK activity)) was 1.1 and the fold induction at 50 µM (E. cloacae; cutoff for positive-scoring molecules 3-fold increase, read-out: AK-based Prestwick Library Screening Results, E. cloacae (fold increase in extracellular AK activity)) was 1.4. It also gave a fold induction at 50 µM (K. pneumoniae; cutoff for positive-scoring molecules 3-fold increase, read-out: AK-based Prestwick Library Screening Results, K. pneumoniae (fold increase in extracellular AK activity)) of 1, a fold induction at 50 µM ([1]; cutoff for positive-scoring molecules 3-fold increase, read-out: AK-based Prestwick Library Screening Results, S. aureus (fold increase in extracellular AK activity)) of 1.2 and a fold induction at 50 µM (E. coli; cutoff for positive-scoring molecules 3-fold increase, read-out: AK-based Prestwick Library Screening Results, E. coli (fold increase in extracellular AK activity)) of 1.3. For the same compound, the fold induction at 50 µM ([2]; cutoff for positive-scoring molecules 3-fold increase, read-out: AK-based Prestwick Library Screening Results, A. baumannii (fold increase in extracellular AK activity)) was 1.3.

With `CNCC(O)c1ccc(OC(=O)C(C)(C)C)c(OC(=O)C(C)(C)C)c1` (stereo not shown) [Dipivefrin hydrochloride] the fold induction at 50 µM (P. aeruginosa; [3]) was 1.3, the fold induction at 50 µM (E. faecium; [4]) was 1 and the fold induction at 50 µM (E. cloacae; [5]) was 1.6. The fold induction at 50 µM (K. pneumoniae; [6]) was 1.3, the fold induction at 50 µM [1, 7] was 1.2 and the fold induction at 50 µM (E. coli; planktonic, […], read-out: AK-based Prestwick Library Screening Results, E. coli (fold increase in extracellular AK activity)) was 1.4. The fold induction at 50 µM [2, 8] was 1.4.

Compound `Cn1c(=O)c2c(ncn2CC(O)CO)n(C)c1=O` (stereo not shown) [Diprophylline] has a fold induction at 50 µM (P. aeruginosa; [9]) of 0.7, a fold induction at 50 µM (E. faecium; [10]) of 0.9 and a fold induction at 50 µM (E. cloacae; [11]) of 1.1. It also gave a fold induction at 50 µM (K. pneumoniae; [12]) of 0.6, a fold induction at 50 µM [1, 13] of 0.7 and a fold induction at 50 µM (E. coli; [14]) of 1. For the same compound, the fold induction at 50 µM [2, 15] was 0.8.

`OCCN(CCO)c1nc(N2CCCCC2)c2nc(N(CCO)CCO)nc(N3CCCCC3)c2n1` [Dipyridamole] gave a fold induction at 50 µM (P. aeruginosa; planktonic P. aeruginosa, 384-well, cutoff for positive-scoring molecules 3-fold increase, read-out: AK-based Prestwick Library Screening Results: P. aeruginosa (increase in extracellular AK activity)) of 1.1, a fold induction at 50 µM (E. faecium; planktonic E. faecium, 384-well, cutoff for positive-scoring molecules 3-fold increase, read-out: AK-based Prestwick Library Screening Results: E. faecium (increase in extracellular AK activity)) of 0.9 and a fold induction at 50 µM (E. cloacae; planktonic E. cloacae, 384-well, cutoff for positive-scoring molecules 3-fold increase, read-out: AK-based Prestwick Library Screening Results: E. cloacae (increase in extracellular AK activity)) of 1.4. The fold induction at 50 µM (K. pneumoniae; planktonic K. pneumoniae, 384-well, cutoff for positive-scoring molecules 3-fold increase, read-out: AK-based Prestwick Library Screening Results: K. pneumoniae (increase in extracellular AK activity)) was 0.9, the fold induction at 50 µM ([1]; planktonic S. aureus, 384-well, cutoff for positive-scoring molecules 3-fold increase, read-out: AK-based Prestwick Library Screening Results: S. aureus (increase in extracellular AK activity)) was 0.8 and the fold induction at 50 µM (E. coli; planktonic E. coli, 384-well, cutoff for positive-scoring molecules 3-fold increase, read-out: AK-based Prestwick Library Screening Results: E. coli (increase in extracellular AK activity)) was 1.3. The fold induction at 50 µM ([2]; planktonic A. baumannii, 384-well, cutoff for positive-scoring molecules 3-fold increase, read-out: AK-based Prestwick Library Screening Results: A. baumannii (increase in extracellular AK activity)) was 1.2.

`Cc1c(N(C)CS(=O)(=O)[O-])c(=O)n(-c2ccccc2)n1C.[Na+]` [Dipyrone] was tested, and the “AK-based Prestwick Library Screening Results, P. aeruginosa (fold increase in extracellular AK activity)” value (P. aeruginosa; [16]) was 1.1, the “AK-based Prestwick Library Screening Results, E. faecium (fold increase in extracellular AK activity)” value (E. faecium; [16]) was 1.0 and the “AK-based Prestwick Library Screening Results, E. cloacae (fold increase in extracellular AK activity)” value (E. cloacae; [16]) was 1.4. For the same compound, the “AK-based Prestwick Library Screening Results, K. pneumoniae (fold increase in extracellular AK activity)” value (K. pneumoniae; [16]) was 1.1, the “AK-based Prestwick Library Screening Results, S. aureus (fold increase in extracellular AK activity)” value [1, 16] was 1.4 and the “AK-based Prestwick Library Screening Results, E. coli (fold increase in extracellular AK activity)” value (E. coli; [16]) was 1.1. For the same compound, the “AK-based Prestwick Library Screening Results, A. baumannii (fold increase in extracellular AK activity)” value [2, 16] was 1.1.

`CC[C@H]1OC(=O)[C@H](C)[C@@H](O[C@H]2C[C@@](C)(OC)[C@@H](O)[C@H](C)O2)[C@H](C)[C@@H](O[C@@H]2O[C@H](C)C[C@H](N(C)C)[C@H]2O)[C@](C)(O)C[C@@H](C)[C@@H]2N[C@@H](COCCOC)O[C@H]([C@H]2C)[C@]1(C)O` [Dirithromycin] was tested, and the fold induction at 50 µM (P. aeruginosa; [3]) was 0.9, the fold induction at 50 µM (E. faecium; [4]) was 1.2 and the fold induction at 50 µM (E. cloacae; [5]) was 1.5. The fold induction at 50 µM (K. pneumoniae; [6]) was 1.2, the fold induction at 50 µM [1, 7] was 2.1 and the fold induction at 50 µM (E. coli; planktonic, cutoff for positive 3-fold increase, read-out: AK-based Prestwick Library Screening Results, E. coli (fold increase in extracellular AK activity)) was 1.1. The fold induction at 50 µM [2, 8] was 1.8.

For `CC(C)N(CCC(C(N)=O)(c1ccccc1)c1ccccn1)C(C)C` (stereo not shown) [Disopyramide], the fold induction at 50 µM (P. aeruginosa; [9]) was 0.9, the fold induction at 50 µM (E. faecium; [10]) was 0.9 and the fold induction at 50 µM (E. cloacae; [11]) was 1. It also gave a fold induction at 50 µM (K. pneumoniae; [12]) of 0.6, a fold induction at 50 µM [1, 13] of 2.7 and a fold induction at 50 µM (E. coli; [14]) of 0.9. The fold induction at 50 µM [2, 15] was 0.9.

`CCN(CC)C(=S)SSC(=S)N(CC)CC` [Disulfiram] was tested, and the fold induction at 50 µM (P. aeruginosa; [17]) was 0.6, the fold induction at 50 µM (E. faecium; [18]) was 1 and the fold induction at 50 µM (E. cloacae; [19]) was 0.7. For the same compound, the fold induction at 50 µM (K. pneumoniae; [20]) was 0.6, the fold induction at 50 µM [1, 21] was 1.1 and the fold induction at 50 µM (E. coli; [22]) was 0.9. It also gave a fold induction at 50 µM [2, 23] of 1.

`C[C@]12N[C@H](Cc3ccccc31)c1ccccc12` [Dizocilpine maleate] was tested, and the fold induction at 50 µM (P. aeruginosa; [17]) was 0.9, the fold induction at 50 µM (E. faecium; [18]) was 0.9 and the fold induction at 50 µM (E. cloacae; [19]) was 1. For the same compound, the fold induction at 50 µM (K. pneumoniae; [20]) was 0.7, the fold induction at 50 µM [1, 21] was 0.7 and the fold induction at 50 µM (E. coli; [22]) was 0.9. It also gave a fold induction at 50 µM [2, 23] of 0.8.

`CC(CCc1ccc(O)cc1)NCCc1ccc(O)c(O)c1` (stereo not shown) [Dobutamine hydrochloride] showed a fold induction at 50 µM (P. aeruginosa; planktonic P. aeruginosa, cutoff for positive-scoring molecules 3-fold increase, read-out: AK-based Prestwick Library Screening Results, P. aeruginosa (increase in extracellular AK activity)) of 0.6, a fold induction at 50 µM (E. faecium; planktonic E. faecium, cutoff for positive-scoring molecules 3-fold increase, read-out: AK-based Prestwick Library Screening Results, E. faecium (increase in extracellular AK activity)) of 0.8 and a fold induction at 50 µM (E. cloacae; planktonic E. cloacae, cutoff for positive-scoring molecules 3-fold increase, read-out: AK-based Prestwick Library Screening Results, E. cloacae (increase in extracellular AK activity)) of 1.1. For the same compound, the fold induction at 50 µM (K. pneumoniae; planktonic K. pneumoniae, cutoff for positive-scoring molecules 3-fold increase, read-out: AK-based Prestwick Library Screening Results, K. pneumoniae (increase in extracellular AK activity)) was 0.8, the fold induction at 50 µM ([1]; planktonic S. aureus, cutoff for positive-scoring molecules 3-fold increase, read-out: AK-based Prestwick Library Screening Results, S. aureus (increase in extracellular AK activity)) was 0.1 and the fold induction at 50 µM (E. coli; planktonic E. coli, cutoff for positive-scoring molecules 3-fold increase, read-out: AK-based Prestwick Library Screening Results, E. coli (increase in extracellular AK activity)) was 0.8. For the same compound, the fold induction at 50 µM ([2]; planktonic A. baumannii, cutoff for positive-scoring molecules 3-fold increase, read-out: AK-based Prestwick Library Screening Results, A. baumannii (increase in extracellular AK activity)) was 0.7.
